Reference: patent publication US9862684B2, “Modulation of K2P channels” (The Regents of the University of California, priority 2013, dated 2018)

Tests used:
Type in all cases: cell-based, Murine
[1] = molecular target: T1, K2P2.1 (TREK-1) W275S (Mus musculus, UniProt P97438, W290S); experiment: Two-electrode voltage clamp, Xenopus oocytes, C-type gate mutant W275S
T1 construct: expressed in transfected cells; host or cells: Xenopus oocytes
T1 sequence (P97438 1-411 isoform P97438-2 W275S): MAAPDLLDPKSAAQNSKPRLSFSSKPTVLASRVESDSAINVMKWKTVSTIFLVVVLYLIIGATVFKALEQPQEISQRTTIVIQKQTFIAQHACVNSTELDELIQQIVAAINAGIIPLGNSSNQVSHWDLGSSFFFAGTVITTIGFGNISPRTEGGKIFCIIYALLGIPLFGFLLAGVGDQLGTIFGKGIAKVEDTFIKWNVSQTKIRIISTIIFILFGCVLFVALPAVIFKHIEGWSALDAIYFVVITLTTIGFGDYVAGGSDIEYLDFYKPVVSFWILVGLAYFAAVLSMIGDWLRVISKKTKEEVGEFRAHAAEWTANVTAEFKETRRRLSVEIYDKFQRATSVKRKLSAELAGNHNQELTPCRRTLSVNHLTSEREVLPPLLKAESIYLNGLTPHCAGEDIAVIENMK
Method: (§1) I-V curves were measured by two-electrode voltage clamp of Xenopus oocytes in b, 90 mM [K^+]o. or c-e, 2 mM [K^+]o. […] Data (were measured at 20 mV (90 mM [K^+]o) or 0 mV (2 mM [K^+]o), normalized to basal channel activity, and fitted to the Hill equation. Error bars indicate s.e., n≧6, N≧2.
(§2) Murine K2P channels were cloned into pGEMHE/pMO {Bagriantsev, 2011}, IRES-GFP (Invitrogen), or pYES2-MET25 (high copy 2μ, URA3) {Minor, 1999} for expression in oocytes, HEK-293T cells, and yeast, respectively, using standard molecular biology procedures, and verified by DNA sequencing.
(§3) Two-electrode voltage clamp recordings were performed from defolliculated stage V-VI Xenopus oocytes 24-48 hours after injection with 0.015-6.0 ng cRNA, using microelectrodes (0.3-3.0 MΩ) filled with 3M KCl. Data was acquired using the GeneClamp 500B (MDS Analytical Technologies) amplifier controlled by the pClamp software (Molecular Devices), and digitized at 1 kHz using Digidata 1332A (MDS Analytical Technologies). Recording solutions (mM): 2K (96 NaCl, 2 KCl, 1.8 CaCl2, 2 MgCl2), 90K (90 KCl, 8 NaCl, 1.8 CaCl2, 2 MgCl2), were buffered 5 mM HEPES pH 7.4. For K2P recordings, currents we elicited by a 1 second long ramp from −150 to +50 mV from a holding potential of −80 mV (2K), or −100 to +50 mV from a holding potential of 0 mV (90K). […]

[2] = molecular target: T2, K2P2.1 (TREK-1)-3G (Mus musculus, UniProt P97438, D309G/I307G); experiment: Two-electrode voltage clamp, Xenopus oocytes, triple glycine mutant uncoupling Ct; conditions: 3G mutant
T2 sequence (P97438 1-426 I307G/D309G): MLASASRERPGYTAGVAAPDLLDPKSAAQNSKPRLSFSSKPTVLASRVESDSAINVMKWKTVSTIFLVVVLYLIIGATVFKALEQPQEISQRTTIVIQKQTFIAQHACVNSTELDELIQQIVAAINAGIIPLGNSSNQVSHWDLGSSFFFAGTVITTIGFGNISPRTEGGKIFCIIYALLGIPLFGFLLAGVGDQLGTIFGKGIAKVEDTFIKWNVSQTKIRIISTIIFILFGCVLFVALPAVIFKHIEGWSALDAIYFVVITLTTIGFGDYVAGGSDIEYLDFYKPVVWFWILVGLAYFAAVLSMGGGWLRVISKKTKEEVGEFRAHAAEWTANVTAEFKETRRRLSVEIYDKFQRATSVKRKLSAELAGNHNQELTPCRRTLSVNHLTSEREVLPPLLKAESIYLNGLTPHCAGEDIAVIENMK
Method: as §1, §2, §3

[3] = molecular target: T3, K2P2.1 (TREK-1)-3G (Mus musculus, UniProt P97438, I307G/D309G); experiment: as above; conditions: 3G mutant
T3 sequence (P97438 1-426 I307G/D309G): T2 sequence (P97438 1-426 I307G/D309G)
Method: as §1, §2, §3

CC1(C)c2cc(Cl)ccc2N(CCc2nnn[nH]2)c2ccc(Cl)cc21 [ML67-33, 2,7-dichloro-9,9-dimethyl-10-[2-(1H-tetrazol-5-yl)ethyl]acridine]
EC50 [1]: 21.8 ± 1.3 µM | Emax (fold) [1]: 5.1 ± 0.6 fold | EC50 [2]: 49.4 ± 0.1 µM | Emax (fold) [3]: 12.9±1.0 fold
